Measured values as given in the NIST ThermoML archive (doi:10.1016/j.fluid.2017.06.019).

Conditions: Coaxial cylinder method

CCC [propane]
thermal conductivity [W/m/K]
Conditions | 368.46 K | 369.12 K
3948 kPa, Gas | – | 0.04135
3960 kPa, Gas | – | 0.0417
4020 kPa, Gas | – | 0.04343
4040 kPa, Gas | – | 0.04417
4115 kPa, Gas | – | 0.0486
4120 kPa, Gas | – | 0.04907
4125 kPa, Gas | – | 0.04956
4130 kPa, Gas | – | 0.05011
4135 kPa, Gas | – | 0.05071
4140 kPa, Gas | – | 0.05135
4145 kPa, Gas | – | 0.05207
4150 kPa, Gas | – | 0.0529
4154 kPa, Gas | – | 0.05366
4156 kPa, Gas | – | 0.05402
4158 kPa, Gas | – | 0.05445
4160 kPa, Gas | – | 0.05488
4162 kPa, Gas | – | 0.0554
4164 kPa, Gas | – | 0.05743
4166 kPa, Gas | – | 0.06032
4166 kPa, Liquid | 0.1166 | –
4167 kPa, Liquid | 0.1142 | –
4168 kPa, Gas | – | 0.0639
4168 kPa, Liquid | 0.112 | –
4169 kPa, Liquid | 0.1098 | –
4170 kPa, Gas | – | 0.06861
4170 kPa, Liquid | 0.1079 | –
4171 kPa, Liquid | 0.1059 | –
4172 kPa, Gas | – | 0.07431
4172 kPa, Liquid | 0.1041 | –
4173 kPa, Liquid | 0.1023 | –
4174 kPa, Liquid | 0.1007 | –
4175 kPa, Liquid | 0.09915 | –
4176 kPa, Liquid | 0.09767 | –
4177 kPa, Liquid | 0.09622 | –
4178 kPa, Liquid | 0.09487 | –
4179 kPa, Liquid | 0.09359 | –
4180 kPa, Gas | – | 0.113
4180 kPa, Liquid | 0.0923 | –
4181 kPa, Liquid | 0.09113 | –
4182 kPa, Gas | – | 0.127
4182 kPa, Liquid | 0.09007 | –
4183 kPa, Liquid | 0.08899 | –
4184 kPa, Gas | – | 0.1426
4184 kPa, Liquid | 0.08793 | –
4185 kPa, Liquid | 0.08689 | –
4186 kPa, Gas | – | 0.1588
4186 kPa, Liquid | 0.08599 | –
4187 kPa, Liquid | 0.08507 | –
4188 kPa, Gas | – | 0.179
4188 kPa, Liquid | 0.08424 | –
4189 kPa, Liquid | 0.08337 | –
4190 kPa, Gas | – | 0.1956
4190 kPa, Liquid | 0.08257 | –
4191 kPa, Liquid | 0.08179 | –
4192 kPa, Gas | – | 0.2155
4192 kPa, Liquid | 0.08112 | –
4193 kPa, Liquid | 0.08042 | –
4194 kPa, Liquid | 0.07971 | 0.2155
4195 kPa, Liquid | 0.0791 | –
4196 kPa, Liquid | 0.0785 | 0.1917
4197 kPa, Liquid | 0.07791 | –
4198 kPa, Liquid | 0.07733 | 0.1741
4199 kPa, Liquid | 0.07676 | –
4200 kPa, Liquid | 0.07619 | 0.1606
4201 kPa, Liquid | 0.07577 | –
4202 kPa, Liquid | 0.07536 | 0.1497
4203 kPa, Liquid | 0.07481 | –
4204 kPa, Liquid | 0.07441 | 0.1407
4205 kPa, Liquid | 0.07401 | –
4206 kPa, Liquid | 0.07348 | 0.1335
4207 kPa, Liquid | 0.07318 | –
4208 kPa, Liquid | 0.07282 | 0.1259
4209 kPa, Liquid | 0.07244 | –
4210 kPa, Liquid | 0.07206 | 0.1185
4211 kPa, Liquid | 0.07181 | –
4212 kPa, Liquid | 0.07151 | 0.1121
4213 kPa, Liquid | 0.07116 | 0.1093
4214 kPa, Liquid | 0.07087 | –
4215 kPa, Liquid | 0.07063 | 0.1035
4216 kPa, Liquid | 0.07039 | –
4217 kPa, Liquid | 0.0701 | –
4218 kPa, Liquid | 0.06986 | –
4219 kPa, Liquid | 0.06962 | –
4220 kPa, Liquid | 0.06939 | –
4221 kPa, Liquid | 0.0692 | –
4222 kPa, Liquid | 0.06897 | –
4223 kPa, Liquid | 0.06874 | –
4224 kPa, Liquid | 0.0686 | –
4225 kPa, Liquid | 0.0684 | –
4226 kPa, Liquid | 0.06824 | –
4227 kPa, Liquid | 0.06804 | –
4228 kPa, Liquid | 0.0679 | 0.08399
4229 kPa, Liquid | 0.06777 | –
4230 kPa, Liquid | 0.06761 | 0.08176
4231 kPa, Liquid | 0.06749 | –
4232 kPa, Liquid | 0.06733 | 0.07987
4233 kPa, Liquid | 0.06722 | –
4234 kPa, Liquid | 0.06709 | 0.07806
4235 kPa, Liquid | 0.06698 | –
4236 kPa, Liquid | 0.06684 | 0.07633
4237 kPa, Liquid | 0.06677 | –
4238 kPa, Liquid | 0.06652 | 0.07491
4239 kPa, Liquid | 0.06652 | –
4240 kPa, Liquid | 0.06647 | 0.07344
4241 kPa, Liquid | 0.06643 | –
4242 kPa, Liquid | 0.06641 | –
4244 kPa, Liquid | 0.06637 | –
4246 kPa, Liquid | 0.0663 | –
4248 kPa, Liquid | 0.06624 | –
4250 kPa, Liquid | 0.06619 | –
4252 kPa, Liquid | 0.06614 | –
4254 kPa, Liquid | 0.06611 | –
4256 kPa, Liquid | 0.06607 | –
4258 kPa, Liquid | 0.066 | –
4260 kPa, Liquid | 0.06598 | 0.06913
4262 kPa, Liquid | 0.06591 | –
4264 kPa, Liquid | 0.06587 | –
4266 kPa, Liquid | 0.06583 | –
4268 kPa, Liquid | 0.06578 | –
4270 kPa, Liquid | 0.06574 | –
4272 kPa, Liquid | 0.06572 | –
4274 kPa, Liquid | 0.06568 | –
4276 kPa, Liquid | 0.06564 | –
4278 kPa, Liquid | 0.06564 | –
4280 kPa, Liquid | 0.06559 | 0.06803
4282 kPa, Liquid | 0.06555 | –
4284 kPa, Liquid | 0.0655 | –
4286 kPa, Liquid | 0.0655 | –
4288 kPa, Liquid | 0.06543 | –
4290 kPa, Liquid | 0.06539 | –
4292 kPa, Liquid | 0.06535 | –
4294 kPa, Liquid | 0.06533 | –
4296 kPa, Liquid | 0.06529 | –
4298 kPa, Liquid | 0.06529 | –
4300 kPa, Liquid | 0.06527 | 0.06726
4302 kPa, Liquid | 0.06525 | –
4304 kPa, Liquid | 0.06521 | –
4306 kPa, Liquid | 0.06516 | –
4308 kPa, Liquid | 0.06514 | –
4310 kPa, Liquid | 0.06514 | –
4312 kPa, Liquid | 0.0651 | –
4314 kPa, Liquid | 0.06505 | –
4316 kPa, Liquid | 0.06503 | –
4318 kPa, Liquid | 0.06501 | –
4320 kPa, Liquid | 0.06499 | 0.06665
4322 kPa, Liquid | 0.06499 | –
4324 kPa, Liquid | 0.06497 | –
4326 kPa, Liquid | 0.06493 | –
4328 kPa, Liquid | 0.06493 | –
4330 kPa, Liquid | 0.06489 | –
4332 kPa, Liquid | 0.06487 | –
4334 kPa, Liquid | 0.06484 | –
4336 kPa, Liquid | 0.06484 | –
4338 kPa, Liquid | 0.06482 | –
4340 kPa, Liquid | 0.06482 | 0.06616
4345 kPa, Liquid | 0.06476 | –
4350 kPa, Liquid | 0.06472 | –
4355 kPa, Liquid | 0.06468 | –
4360 kPa, Liquid | 0.06461 | –
4365 kPa, Liquid | 0.06458 | –
4368 kPa, Liquid | 0.06458 | –
4375 kPa, Liquid | 0.06454 | –
4380 kPa, Liquid | 0.0645 | 0.06546
4385 kPa, Liquid | 0.06446 | –
4390 kPa, Liquid | 0.06443 | –
4400 kPa, Liquid | 0.06439 | 0.06519
4450 kPa, Liquid | 0.06421 | –
4500 kPa, Liquid | 0.06413 | –
4550 kPa, Liquid | 0.06411 | –
4600 kPa, Liquid | 0.06411 | –
4650 kPa, Liquid | 0.06421 | –
4700 kPa, Liquid | 0.06427 | –
4750 kPa, Liquid | 0.06439 | –
4800 kPa, Liquid | 0.06451 | –
4900 kPa, Liquid | 0.06477 | –
4960 kPa, Liquid | 0.06496 | –
4965 kPa, Liquid | 0.065 | –
4967 kPa, Liquid | 0.065 | –
5000 kPa, Liquid | 0.06509 | –
5100 kPa, Liquid | 0.06542 | –
5200 kPa, Liquid | 0.06573 | –
5300 kPa, Liquid | 0.06605 | –
5400 kPa, Liquid | 0.06646 | –
5500 kPa, Liquid | 0.06674 | –
5600 kPa, Liquid | 0.06707 | –
5700 kPa, Liquid | 0.06732 | –
5800 kPa, Liquid | 0.06767 | –
5900 kPa, Liquid | 0.06794 | –
6010 kPa, Liquid | 0.06831 | –
6020 kPa, Liquid | 0.06831 | –
6200 kPa, Liquid | 0.06884 | –
6210 kPa, Liquid | 0.06886 | –
8500 kPa, Liquid | – | 0.0737
9020 kPa, Liquid | – | 0.07453
10028 kPa, Liquid | – | 0.07577
14772 kPa, Liquid | – | 0.08097
